pEC50: −log10 of the molar value.
Assays:
Format in all cases: functional, cell-based
[1] = target: T1, Estrogen receptor (Homo sapiens) (UniProt P03372); assay: Agonist activity at ERalpha-LBD expressed in HEK293 cells assessed as Gal4-DBD interaction by cellular mammalian one hybrid assay relative to 17-beta-estradiol
T1 sequence (whole entry): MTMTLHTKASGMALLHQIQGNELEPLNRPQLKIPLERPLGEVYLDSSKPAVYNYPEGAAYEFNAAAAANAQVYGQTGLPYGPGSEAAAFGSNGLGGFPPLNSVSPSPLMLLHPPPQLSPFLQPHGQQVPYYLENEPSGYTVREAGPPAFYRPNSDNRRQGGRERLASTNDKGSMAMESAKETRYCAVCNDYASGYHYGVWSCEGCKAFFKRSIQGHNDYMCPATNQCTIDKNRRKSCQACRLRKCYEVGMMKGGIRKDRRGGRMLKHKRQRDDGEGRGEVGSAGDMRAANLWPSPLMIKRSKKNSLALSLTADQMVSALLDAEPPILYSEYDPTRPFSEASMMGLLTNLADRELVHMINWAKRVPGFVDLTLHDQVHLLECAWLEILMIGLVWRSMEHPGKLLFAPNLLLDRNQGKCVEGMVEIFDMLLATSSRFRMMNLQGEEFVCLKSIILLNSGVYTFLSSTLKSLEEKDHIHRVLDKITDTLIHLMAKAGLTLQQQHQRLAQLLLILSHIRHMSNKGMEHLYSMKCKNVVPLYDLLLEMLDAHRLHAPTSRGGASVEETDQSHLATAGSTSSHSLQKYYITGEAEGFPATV

[2] = target: T2, Nuclear receptor subfamily 1 group I member 3 (Homo sapiens, UniProt Q14994); assay: Agonist activity at CAR-LBD expressed in HEK293 cells assessed as Gal4-DBD interaction by cellular mammalian one hybrid assay
T2 sequence (Q14994 whole entry): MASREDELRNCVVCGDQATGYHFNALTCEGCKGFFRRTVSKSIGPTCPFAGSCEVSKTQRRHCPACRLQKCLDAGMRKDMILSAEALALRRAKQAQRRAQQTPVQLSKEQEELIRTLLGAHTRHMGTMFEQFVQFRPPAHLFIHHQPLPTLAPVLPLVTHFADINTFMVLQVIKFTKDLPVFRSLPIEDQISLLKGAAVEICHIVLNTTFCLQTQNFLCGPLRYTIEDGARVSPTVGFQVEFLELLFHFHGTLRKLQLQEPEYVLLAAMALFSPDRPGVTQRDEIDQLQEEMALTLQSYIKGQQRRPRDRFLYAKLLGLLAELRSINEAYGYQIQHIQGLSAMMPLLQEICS

[3] = target: T3, Progesterone receptor (Homo sapiens, UniProt P06401); assay: Agonist activity at progesterone receptor-LBD expressed in HEK293 cells assessed as Gal4-DBD interaction by cellular mammalian one hybrid assay
T3 sequence (P06401 whole entry): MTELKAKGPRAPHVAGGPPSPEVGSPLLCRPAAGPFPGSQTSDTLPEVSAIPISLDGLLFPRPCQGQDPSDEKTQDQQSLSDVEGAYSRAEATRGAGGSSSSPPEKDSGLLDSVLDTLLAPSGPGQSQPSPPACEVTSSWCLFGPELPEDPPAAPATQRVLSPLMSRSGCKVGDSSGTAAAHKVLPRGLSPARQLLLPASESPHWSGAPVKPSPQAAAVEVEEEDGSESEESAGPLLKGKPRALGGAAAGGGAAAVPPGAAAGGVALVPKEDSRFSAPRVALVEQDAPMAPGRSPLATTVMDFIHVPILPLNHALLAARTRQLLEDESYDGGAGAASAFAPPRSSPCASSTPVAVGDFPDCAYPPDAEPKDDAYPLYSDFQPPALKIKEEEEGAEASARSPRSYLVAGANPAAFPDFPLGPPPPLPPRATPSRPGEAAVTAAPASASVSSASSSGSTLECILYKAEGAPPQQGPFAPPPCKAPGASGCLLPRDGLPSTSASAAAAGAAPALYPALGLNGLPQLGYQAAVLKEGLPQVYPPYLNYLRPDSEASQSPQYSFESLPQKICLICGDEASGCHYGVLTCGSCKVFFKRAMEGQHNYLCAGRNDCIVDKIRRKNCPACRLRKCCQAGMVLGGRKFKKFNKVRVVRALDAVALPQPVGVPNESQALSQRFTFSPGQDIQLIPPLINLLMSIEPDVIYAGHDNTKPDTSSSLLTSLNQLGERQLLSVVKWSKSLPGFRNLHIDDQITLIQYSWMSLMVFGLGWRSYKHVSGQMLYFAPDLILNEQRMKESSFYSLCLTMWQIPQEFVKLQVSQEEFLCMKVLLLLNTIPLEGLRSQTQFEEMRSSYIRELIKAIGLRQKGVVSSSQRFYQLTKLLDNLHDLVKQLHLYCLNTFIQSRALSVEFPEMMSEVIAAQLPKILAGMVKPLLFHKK

[4] = target: T4, Bile acid receptor (Homo sapiens, UniProt Q96RI1); assay: Agonist activity at human full length FXR transfected in HEK293 cells coexpressing pTRexDest/pGL2promotor assessed as luciferase activity by direct reporter cellular assay; conditions: read-out: EC50
T4 sequence (Q96RI1 whole entry): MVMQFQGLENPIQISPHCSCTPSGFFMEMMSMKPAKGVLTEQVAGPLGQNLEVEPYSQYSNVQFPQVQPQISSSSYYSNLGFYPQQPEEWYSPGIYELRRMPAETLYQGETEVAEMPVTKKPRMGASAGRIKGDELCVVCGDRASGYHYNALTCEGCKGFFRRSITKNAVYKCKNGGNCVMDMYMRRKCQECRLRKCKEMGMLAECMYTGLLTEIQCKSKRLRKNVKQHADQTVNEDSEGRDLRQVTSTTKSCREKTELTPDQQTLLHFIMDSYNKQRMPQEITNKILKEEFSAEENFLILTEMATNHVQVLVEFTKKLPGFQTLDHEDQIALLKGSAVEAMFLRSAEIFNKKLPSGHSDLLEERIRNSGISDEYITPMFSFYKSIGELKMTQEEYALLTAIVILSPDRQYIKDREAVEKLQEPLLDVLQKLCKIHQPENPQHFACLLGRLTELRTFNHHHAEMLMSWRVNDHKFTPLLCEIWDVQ

Row | SMILES | Efficacy [1] [%] | pEC50 [2] | pEC50 [3] | pEC50 [4]
1 | CN(Cc1cccc(C(=O)O)c1)c1ccc(OCc2c(-c3c(Cl)cccc3Cl)noc2C2CC2)nc1C(F)(F)F | 24 | < 5.00 | < 5.00 | 8.70
2 | CN(Cc1ccc(C(=O)O)cc1)c1ccc(OCc2c(-c3c(Cl)cccc3Cl)noc2C2CC2)nc1C(F)(F)F | 0 | < 5.00 | < 5.00 | 8.22
3 | CC(C)c1onc(-c2c(Cl)cccc2Cl)c1COc1ccc(N(C)Cc2ccc(C(=O)O)cc2)c(C(F)(F)F)n1 | 0 | < 5.00 | < 5.00 | 7.82
